Holding throughout (assay): NCI tumour cell line growth inhibition, 48 h
The test system of assay [1] is MALME-3M melanoma.
The test system of assay [2] is A549 NSCLC.
For assay [3], the system named is OVCAR-5 ovarian.
For assay [4], the system named is P388/ADR leukemia.
Assay [5] relates to K-562 leukemia.
The subject of assay [6] is NCI-H522 lung.
Assay [7] deals with SF-295 CNS.
The subject of assay [8] is SNB-75 CNS.
Assay [9] concerns EKVX NSCLC.
Assay [10] concerns HT29 colon.
Assay [11] concerns SK-OV-3 ovarian.
Assay [12] concerns HOP-92 NSCLC.
Assay [13] relates to HL-60(TB) leukemia.
Assay [14] deals with RPMI-8226 leukemia.
The test system of assay [15] is HCT-15 colon.
In assay [16] the test system is SR leukemia.
Assay [17] deals with T-47D breast.
Assay [18] has as its system MDA-MB-435.
The subject of assay [19] is DU-145 prostate.

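Exposure lasted 48 hours, with cells grown in 96-well plates and compounds tested at five concentrations. GI50 is the concentration that inhibits growth by half. TGI is the concentration that stops growth completely.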

Regarding `O=C(Nc1ccc(C2=NCCN2)cc1)c1cncc(C(=O)Nc2ccc(C3=NCCN3)cc2)c1`, the TGI in [1], in assay [2], in assay [3], in [4], in assay [5] and in assay [6] was above 100 µM each time. Moreover, the TGI is above 100 µM in [7]; above 31.6 µM in [8]; above 100 µM in assay [9]; above 100 µM in assay [10]; above 100 µM in [11]; above 100 µM in assay [12]. The TGI in [13], in assay [14] and in [15] was above 100 µM in each case.
Regarding `CCOC(=O)C(NC(C)=O)(Nc1ccc(F)cc1)C(F)(F)F` (stereo not drawn), the TGI in assay [16], in [2], in assay [3], in assay [5], in [6] and in [7] was above 100 µM throughout. For the same molecule, the TGI in assay [8] was above 100 µM; in assay [17], 81.5 µM; in assay [18], above 100 µM; in assay [9] it was above 100 µM; in assay [10] it was above 100 µM; in assay [11], above 100 µM. For the same molecule, the TGI in assay [12], in assay [13], in [14], in assay [15] and in assay [19] was above 100 µM throughout.
On to `Cc1cn(C2CC(n3cc(Cn4cc(I)c(=O)[nH]c4=O)nn3)C(CO)O2)c(=O)[nH]c1=O` (stereo not drawn), for which the TGI in assay [2], in assay [3], in assay [7], in assay [8], in assay [17] and in assay [18] was above 100 µM throughout. In addition, the TGI in assay [11], in assay [12], in assay [14], in assay [15] and in assay [19] was above 100 µM throughout.
As for `CCOc1cc2c(cc1O)/C(=N\OC)C[C@@H]1[C@@H]2CC[C@]2(C)[C@@H](O)CC[C@@H]12`, the TGI in [16] is 0.0585 µM; in [1], 34.7 µM; in assay [2], above 100 µM; in [3] it was above 100 µM; in assay [5] it was above 100 µM; in [6], 0.518 µM. In addition, the TGI in assay [7] is 2.32 µM; in [8], 0.21 µM; in assay [9], above 100 µM; in assay [10] it was 15.3 µM; in assay [11], above 100 µM; in [12], above 96.6 µM. For the same molecule, the TGI was 16.1 µM in assay [15] and above 100 µM in [19]. Also, in [7], the GI50 is 0.242 µM.

The values are drawn from PubChem BioAssay (NCI).
